The text below walks through data of ChEMBL document CHEMBL1143959, “Synthesis and structure-affinity relationships of novel spirocyclic sigma receptor ligands with furopyrazole structure” (Bioorg Med Chem, 2008).

For one test, the species on record is Rattus norvegicus. Kind of test: Displacement of [3H]ditolylguanidine from sigma 2 […] receptor in rat liver at 1 uM.
Test [1] in a line: Displacement of [3H]ditolylguanidine from sigma 2 […] receptor in rat liver. (In general: Displacement assays read how much labelled ligand stays bound in the presence of the test substance.)
A short description of test [2]: Displacement of [3H]MK-801 from NMDA receptor at 1 uM.
Test [3] in a line: Inhibition of adrenergic alpha 1 receptor.
The nature of test [4]: Inhibition of adrenergic alpha 2 receptor.
For test [5], the target named is T1, 5-hydroxytryptamine receptor 1A (Homo sapiens, UniProt P08908).
T1 sequence (P08908 whole entry): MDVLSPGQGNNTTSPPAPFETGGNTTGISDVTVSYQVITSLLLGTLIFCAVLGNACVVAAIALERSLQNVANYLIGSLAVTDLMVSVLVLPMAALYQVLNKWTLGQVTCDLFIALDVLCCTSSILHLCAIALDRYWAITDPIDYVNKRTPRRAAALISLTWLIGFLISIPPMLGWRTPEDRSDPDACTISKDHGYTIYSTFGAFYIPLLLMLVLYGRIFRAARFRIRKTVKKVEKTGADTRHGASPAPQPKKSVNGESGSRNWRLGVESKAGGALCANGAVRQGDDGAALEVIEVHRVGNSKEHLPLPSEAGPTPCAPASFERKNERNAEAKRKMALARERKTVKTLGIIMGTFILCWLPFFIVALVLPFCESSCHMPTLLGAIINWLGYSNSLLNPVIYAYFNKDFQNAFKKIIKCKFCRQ
Kind of test: Inhibition of 5HT1A receptor.

Test [6] concerns the target Sodium-dependent serotonin transporter (Homo sapiens, UniProt P31645). Kind of test: Inhibition of 5HTT receptor.
In test [7] the target is Voltage-gated inwardly rectifying potassium channel KCNH2 (Homo sapiens, UniProt Q12809). Kind of test: Inhibition of human ERG channel.
Test [8] concerns the target Sigma non-opioid intracellular receptor 1 (Cavia porcellus, UniProt Q60492). The experiment in a line: Displacement of [3H](+)-pentazocine from sigma 1 opioid receptor in guinea pig brain membrane. The format is cell membranes.

The structures appear in SMILES notation. Where only a bound is given, the exact number is not on record here.

Sequence of Voltage-gated inwardly rectifying potassium channel KCNH2 (Q12809 whole entry): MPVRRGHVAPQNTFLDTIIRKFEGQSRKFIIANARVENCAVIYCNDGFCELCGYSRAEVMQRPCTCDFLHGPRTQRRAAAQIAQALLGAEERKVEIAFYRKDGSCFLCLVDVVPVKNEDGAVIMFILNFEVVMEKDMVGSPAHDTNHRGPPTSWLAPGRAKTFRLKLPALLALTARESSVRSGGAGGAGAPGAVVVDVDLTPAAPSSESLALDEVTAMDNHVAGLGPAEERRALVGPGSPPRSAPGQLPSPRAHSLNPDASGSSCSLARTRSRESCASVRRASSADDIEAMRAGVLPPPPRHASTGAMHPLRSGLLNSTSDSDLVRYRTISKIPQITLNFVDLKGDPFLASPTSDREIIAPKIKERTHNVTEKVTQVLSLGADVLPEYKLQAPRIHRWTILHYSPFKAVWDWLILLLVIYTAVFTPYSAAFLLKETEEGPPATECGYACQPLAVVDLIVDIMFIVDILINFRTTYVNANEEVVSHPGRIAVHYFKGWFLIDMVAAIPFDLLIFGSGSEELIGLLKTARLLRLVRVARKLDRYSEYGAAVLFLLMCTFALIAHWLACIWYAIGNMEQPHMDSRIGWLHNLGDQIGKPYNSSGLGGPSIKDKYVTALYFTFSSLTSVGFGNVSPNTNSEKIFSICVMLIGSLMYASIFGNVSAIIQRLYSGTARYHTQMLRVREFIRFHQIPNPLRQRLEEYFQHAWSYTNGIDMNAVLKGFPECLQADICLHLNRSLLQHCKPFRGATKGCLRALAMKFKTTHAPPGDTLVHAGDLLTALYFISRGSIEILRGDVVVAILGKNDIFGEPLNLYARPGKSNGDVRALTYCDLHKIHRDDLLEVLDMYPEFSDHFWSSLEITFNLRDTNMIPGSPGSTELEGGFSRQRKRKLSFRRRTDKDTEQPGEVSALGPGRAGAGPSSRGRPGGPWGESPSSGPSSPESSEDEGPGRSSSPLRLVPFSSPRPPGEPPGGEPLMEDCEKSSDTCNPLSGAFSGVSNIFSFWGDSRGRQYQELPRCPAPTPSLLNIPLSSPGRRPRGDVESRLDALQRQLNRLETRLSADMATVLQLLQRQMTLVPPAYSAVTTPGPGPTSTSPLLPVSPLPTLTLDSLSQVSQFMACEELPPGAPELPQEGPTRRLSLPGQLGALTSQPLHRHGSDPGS
Sequence of Sodium-dependent serotonin transporter (P31645 whole entry): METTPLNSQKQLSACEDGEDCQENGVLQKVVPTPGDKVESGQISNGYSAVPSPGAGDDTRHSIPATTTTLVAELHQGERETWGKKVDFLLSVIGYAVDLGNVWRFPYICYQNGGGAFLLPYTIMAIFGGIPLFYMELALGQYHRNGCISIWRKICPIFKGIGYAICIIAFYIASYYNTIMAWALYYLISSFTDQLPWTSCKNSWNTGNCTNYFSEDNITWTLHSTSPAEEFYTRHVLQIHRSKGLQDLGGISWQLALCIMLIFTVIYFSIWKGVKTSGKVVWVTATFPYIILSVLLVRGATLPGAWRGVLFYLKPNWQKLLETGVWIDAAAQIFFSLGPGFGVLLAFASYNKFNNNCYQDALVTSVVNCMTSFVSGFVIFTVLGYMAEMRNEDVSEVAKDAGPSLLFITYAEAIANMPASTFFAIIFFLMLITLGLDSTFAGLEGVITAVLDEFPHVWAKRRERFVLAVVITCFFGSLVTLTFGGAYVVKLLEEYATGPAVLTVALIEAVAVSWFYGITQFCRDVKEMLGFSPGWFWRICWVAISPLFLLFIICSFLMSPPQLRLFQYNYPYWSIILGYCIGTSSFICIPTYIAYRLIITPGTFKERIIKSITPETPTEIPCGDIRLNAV
Sequence of Sigma non-opioid intracellular receptor 1 (Q60492 whole entry): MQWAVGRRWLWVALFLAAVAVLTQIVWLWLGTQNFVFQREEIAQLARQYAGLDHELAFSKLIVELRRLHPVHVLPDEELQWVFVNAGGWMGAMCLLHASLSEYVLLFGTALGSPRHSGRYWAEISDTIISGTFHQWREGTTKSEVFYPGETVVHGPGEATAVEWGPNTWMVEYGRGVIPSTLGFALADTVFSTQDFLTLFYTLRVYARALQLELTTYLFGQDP

`COC1OC2(CCNCC2)c2cnn(-c3ccccc3)c21` (stereo not drawn) yielded an inhibition in the test filed under Rattus norvegicus of 12%.
As to `c1ccc(-n2ncc3c2CCC3CCN2CCCCC2)cc1` (stereo not drawn), the affinity in [1] corresponds to a Ki of 0.0362 µM. This lies in the double-digit nanomolar range.
In test [1], `CCCCN1CCC2(CC1)OC(OC)c1c2cnn1-c1ccccc1` (stereo not drawn) registered a Ki of 1.05 µM. Further, the inhibition in test [2] was found to be 30%. Besides, the concentration for half-maximal inhibition (IC50) is 1.22 µM in test [3]; above 1 µM in test [4]; above 10 µM in [5]; above 10 µM in test [6]; 0.00065 µM in test [7].
In turn, `Cc1ccccc1NC(=N)Nc1ccccc1C` [DITOLYLGUANIDINE] gave a Ki in test [1] of 0.0202 µM.
In the case of `COC1OC2(CCN(Cc3ccccc3)CC2)c2cnn(-c3ccccc3)c21` (stereo not drawn), the Ki in [8] was 0.0005 µM; in test [1] it was 1.75 µM. In test [2], this compound registered an inhibition of 17%. Besides, the IC50 in [3] is above 1 µM; in test [4] it was above 1 µM; in [5], above 10 µM; in test [6], above 10 µM; in [7] it was 0.00041 µM.

As usually defined, the inhibition is the drop in the measured response relative to a control, in per cent. As usually defined, the Ki is a dissociation constant, usually derived from enzyme kinetics or from competition with a known ligand. Broadly, the IC50 is the concentration that inhibits the measured activity by half.
